This note sets out measurements from ChEMBL document CHEMBL4316582, “Nitro-Group-Containing Drugs” (J Med Chem, 2019).

In brackets after ≈: the same amount, converted by molar mass.

Assay [1] concerns HT-29. As to the kind of experiment: Cytotoxicity against human HT-29 cells. It is filed as functional, cell-based.
The next assay relates to SK-OV-3. As to the kind of experiment: Cytotoxicity against human SKOV3 cells. It is filed as functional, cell-based.
The subject of assay [2] is NCI-H460. As to the kind of experiment: Cytotoxicity against human NCI-H460 cells assessed as reduction in cell viability after 2 hrs by Alamar blue assay. The following applies: NCI-H460, 2 h. It is filed as functional, cell-based.
Assay [3] has as its system HT-29. The experiment in a line: Cytotoxicity against human HT-29 cells assessed as reduction in cell viability after 2 hrs by Alamar blue assay. It is filed as functional, cell-based. To be noted: HT-29, 2 h.
Assay [4] is described as follows: Cytotoxicity against human MiaPaCa cells assessed as reduction in cell viability after 2 hrs by Alamar blue assay. It is filed as functional, cell-based. The following applies: MIA PaCa-2, 2 h. For orientation: Resazurin is reduced to fluorescent resorufin, in cell work by metabolically active cells.
In assay [5] the test system is NCI-H460. The experiment in a line: Antiproliferative activity against human NCI-H460 cells in presence of O2. It is filed as functional, cell-based.
The subject of assay [6] is NCI-H460. As to the kind of experiment: Antiproliferative activity against human NCI-H460 cells. It is filed as functional, cell-based.
Assay [7] concerns NCI-H460. The experiment in a line: Antiproliferative activity against human NCI-H460 cells in presence of N2. The class given is functional, cell-based.
Assay [8] has as its target Epidermal growth factor receptor (Homo sapiens, UniProt P00533). As to the kind of experiment: Inhibition of erbB1 (unknown origin) using FRET-capable peptide substrate by FRET assay.
Assay [9] relates to NCI-H460. As to the kind of experiment: Ratio of IC50 for antiproliferative activity against human NCI-H460 cells in presence of O2 to antiproliferative activity against human NCI-H460 cells in presence of N2. It is filed as functional.
The test system of assay [10] is Mycobacterium tuberculosis. The experiment in a line: Antitubercular activity against Mycobacterium tuberculosis. The class given is functional.
The subject of assay [11] is Mycobacterium tuberculosis. The experiment in a line: Antitubercular activity against drug-sensitive Mycobacterium tuberculosis. The class given is functional.
Assay [12] deals with Hep 3B2. The experiment in a line: Cytotoxicity against human Hep3B cells after 24 hrs under hypoxic condition by MTS assay. The class given is functional, cell-based.
Assay [13] relates to Hep 3B2. The experiment in a line: Cytotoxicity against human Hep3B cells after 24 hrs by MTS assay. The class given is functional, cell-based. (Formazan colour is commonly taken as a measure of viable cells.)

Sequence of Epidermal growth factor receptor (P00533 whole entry): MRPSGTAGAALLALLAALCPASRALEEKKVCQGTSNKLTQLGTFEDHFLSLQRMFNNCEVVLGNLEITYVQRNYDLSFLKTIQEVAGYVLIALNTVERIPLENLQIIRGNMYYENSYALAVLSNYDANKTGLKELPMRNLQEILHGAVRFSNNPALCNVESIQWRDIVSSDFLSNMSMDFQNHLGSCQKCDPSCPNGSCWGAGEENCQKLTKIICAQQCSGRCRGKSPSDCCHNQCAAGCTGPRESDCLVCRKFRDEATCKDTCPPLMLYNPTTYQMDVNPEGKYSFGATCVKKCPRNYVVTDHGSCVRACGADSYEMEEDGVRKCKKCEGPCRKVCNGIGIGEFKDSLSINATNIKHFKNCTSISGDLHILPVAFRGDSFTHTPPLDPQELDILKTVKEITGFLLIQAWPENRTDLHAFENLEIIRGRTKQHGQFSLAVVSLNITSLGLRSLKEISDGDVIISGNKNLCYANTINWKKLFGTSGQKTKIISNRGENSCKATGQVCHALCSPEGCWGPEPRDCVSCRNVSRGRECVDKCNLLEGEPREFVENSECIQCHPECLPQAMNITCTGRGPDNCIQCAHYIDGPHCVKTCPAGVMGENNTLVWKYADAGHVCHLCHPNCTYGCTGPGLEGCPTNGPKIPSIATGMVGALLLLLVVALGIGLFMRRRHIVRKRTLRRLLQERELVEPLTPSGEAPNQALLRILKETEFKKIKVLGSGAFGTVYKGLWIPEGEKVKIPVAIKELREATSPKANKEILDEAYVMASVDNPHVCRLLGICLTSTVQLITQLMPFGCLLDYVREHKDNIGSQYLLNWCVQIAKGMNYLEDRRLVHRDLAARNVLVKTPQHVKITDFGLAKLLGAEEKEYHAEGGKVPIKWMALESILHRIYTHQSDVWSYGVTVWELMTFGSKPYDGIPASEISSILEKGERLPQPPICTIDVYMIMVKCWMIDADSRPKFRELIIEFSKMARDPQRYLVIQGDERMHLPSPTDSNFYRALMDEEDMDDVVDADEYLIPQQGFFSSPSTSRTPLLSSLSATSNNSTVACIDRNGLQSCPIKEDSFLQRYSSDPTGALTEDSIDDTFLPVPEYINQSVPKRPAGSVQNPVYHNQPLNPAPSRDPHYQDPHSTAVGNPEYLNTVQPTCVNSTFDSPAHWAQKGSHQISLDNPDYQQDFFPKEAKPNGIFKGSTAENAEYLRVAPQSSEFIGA

As usually defined, the IC50 is the concentration needed to halve the response being measured. With `COC(=O)c1ccc2c3c(cc([N+](=O)[O-])c2c1)N(C(=O)c1cc2cc(OCCN(C)C)ccc2[nH]1)CC3CCl` (centres undefined), the half-maximal inhibitory concentration (IC50) in the assay on HT-29 [1] turned out to be 320 nM; in the assay on SK-OV-3, 440 nM.

Turning to `COc1cc([N+](=O)[O-])ccc1COP(N)(=O)N(CCCl)CCCl` (centres undefined), 1800 nM corresponded to half-maximal inhibition in the assay on SK-OV-3 (IC50).

On to `CC#Cc1c(OC)ccc2c(C(=O)c3cc(OC)c(OC)c(OC)c3)nn(C[N+](C)(C)Cc3c(CCC)nc([N+](=O)[O-])n3C)c12`, for which the IC50 in the assay with NCI-H460 [2] came to 40 nM; in the assay with HT-29 [3], 18 nM.

Consider `C=Cc1nc([N+](=O)[O-])n(C)c1C[N+](C)(C)Cn1nc(C(=O)c2cc(OC)c(OC)c(OC)c2)c2ccc(OC)c(C#CC)c21`, for which the IC50 with NCI-H460 [2] was 48 nM; in assay [4], 20 nM; in the assay with HT-29 [3], 7 nM.

Regarding `CC(OP(N)(=O)N(CCCl)CCCl)c1ccc([N+](=O)[O-])cc1` (centres undefined), in the assay on SK-OV-3, the IC50 was determined as 1800 nM.

With `Cn1c(COP(=O)(NCCBr)NCCBr)cnc1[N+](=O)[O-]` [EVOFOSFAMIDE], the IC50 was 25000 nM in the assay with NCI-H460 [5], over 100000 nM in the assay with NCI-H460 [6] and 2000 nM in the assay with NCI-H460 [7].

As to `C[N+](C)(C/C=C/C(=O)Nc1ccc2ncnc(Nc3cccc(Br)c3)c2c1)Cc1ccccc1[N+](=O)[O-]`, the IC50 in [8] fell in the range of 0.22 to 0.56 nM.

For the compound `N#Cc1cc(COP(=O)(NCCBr)NCCBr)sc1[N+](=O)[O-]`, the concentration for half-maximal inhibition (IC50) with NCI-H460 [5] is 10 nM; in the assay with NCI-H460 [6], 20 nM; with NCI-H460 [7], 6 nM.

Take `CC(=O)O[C@H]1C(=O)[C@@]2(C)[C@H]([C@H](OC(=O)c3ccccc3)[C@]3(O)C[C@H](OC(=O)[C@H](OC(=O)N(C)CCN(C)C(=O)OC(C)c4ccc([N+](=O)[O-])c(Oc5ccc6ncccc6c5)c4)[C@@H](NC(=O)c4ccccc4)c4ccccc4)C(C)=C1C3(C)C)[C@]1(OC(C)=O)CO[C@@H]1C[C@@H]2O` (some centres undefined): half-maximal inhibition with NCI-H460 [6] (IC50) required 30 nM.

Compound `Cn1c(C[N+](C)(C)C/C=C/C(=O)Nc2ccc3ncnc(Nc4cccc(Br)c4)c3c2)ccc1[N+](=O)[O-]` displayed an IC50 in assay [8] of 0.22 to 0.56 nM.

As to `CC#Cc1c(OC)ccc2c(C(=O)c3cc(OC)c(OC)c(OC)c3)nn(C[N+](C)(C)Cc3ccc([N+](=O)[O-])o3)c12`, the IC50 in the assay with NCI-H460 [2] was 45 nM; in the assay on HT-29 [3], 12 nM.

For the compound `NC(=O)c1ccc([N+](=O)[O-])c(N2CC2)n1`, the IC50 stood at 61000 nM in the assay with NCI-H460 [5] and 1700 nM in the assay with NCI-H460 [7]. In addition, the “Ratio IC50” value in the assay on NCI-H460 [9] worked out at 35.9.

Broadly, the MIC is the lowest concentration that inhibits growth of the organism. A high value points to weaker potency. For the compound `O=[N+]([O-])C1CN2C[C@H](OCc3ccc(OC(F)(F)F)cc3)COC2=N1` (some centres undefined), the figures for the MIC in assay [10] and in assay [11] were under 2.8 µM and 0.039 to 0.531 µg/mL (≈ 0.108 to 1.47 µM), respectively.

As for `CC#Cc1c(OC)ccc2c(C(=O)c3cc(OC)c(OC)c(OC)c3)nn(C[N+](C)(C)Cc3c(CC)nc([N+](=O)[O-])n3C)c12`, the IC50 in the assay with NCI-H460 [2] came to 42 nM; in the assay on HT-29 [3], 9 nM.

On to `CC#Cc1c(OC)ccc2c(C(=O)c3cc(OC)c(OC)c(OC)c3)nn(C[N+](C)(C)Cc3c(-c4ccccc4)nc([N+](=O)[O-])n3C)c12`, for which the IC50 in the assay with NCI-H460 [2] came to 12 nM; in assay [4], 16 nM; with HT-29 [3], 6 nM.

Take `CC#Cc1c(OC)ccc2c(C(=O)c3cc(OC)c(OC)c(OC)c3)nn(C[N+](C)(C)Cc3c(Br)nc([N+](=O)[O-])n3C)c12`: the values for the IC50 (with NCI-H460 [2]; in assay [4]; with HT-29 [3]) were 28 nM, 28 nM and 10 nM, respectively.

Consider `NC(=O)c1cnc(N2CC2)c([N+](=O)[O-])c1`, for which the IC50 with NCI-H460 [5] came out at 143000 nM; in the assay with NCI-H460 [7], 2300 nM. In addition, the “Ratio IC50” value in the assay with NCI-H460 [9] is 62.

In turn, `COC(=O)c1cc(COP(N)(=O)N(CCCl)CCCl)ccc1[N+](=O)[O-]` (centres undefined) registered an IC50 in the assay with SK-OV-3 of 2100 nM.

With `COc1ccc(C[C@@H](C)[C@@H](C)Cc2ccc(OC)c(OCCOCCOCCOCCn3cnc([N+](=O)[O-])c3)c2)cc1OC`, the IC50 in the assay with Hep 3B2 [12] worked out at 64300 nM; with Hep 3B2 [13] it was 13000 nM.

In turn, `CC(=O)O[C@H]1C(=O)[C@@]2(C)[C@H]([C@H](OC(=O)c3ccccc3)[C@]3(O)C[C@H](OC(=O)[C@H](OC(=O)N(C)CCN(C)C(=O)OCc4ccc([N+](=O)[O-])c(Oc5ccc6ncccc6c5)c4)[C@@H](NC(=O)c4ccccc4)c4ccccc4)C(C)=C1C3(C)C)[C@]1(OC(C)=O)CO[C@@H]1C[C@@H]2O` showed an IC50 in the assay on NCI-H460 [6] of 30 nM.

In the assay with SK-OV-3, `COc1cc(COP(N)(=O)N(CCCl)CCCl)ccc1[N+](=O)[O-]` (centres undefined) returned a 50% inhibitory concentration (IC50) of 3100 nM.

In assay [8], `Cn1cnc([N+](=O)[O-])c1C[N+](C)(C)C/C=C/C(=O)Nc1ccc2ncnc(Nc3cccc(Br)c3)c2c1` came in with an IC50 of 0.22 to 0.56 nM.

Regarding `COc1ccc(C[C@@H](C)[C@@H](C)Cc2ccc(OC)c(OCCOCCOCCOCCn3ccnc3[N+](=O)[O-])c2)cc1OC`, the IC50 worked out at 53200 nM with Hep 3B2 [12] and 12600 nM in the assay with Hep 3B2 [13].
